Here are results for 4 molecules from patent US8871681B2, “Herbicidal compositions comprising 4-amino-3-chloro-5-fluoro-6-(4-chloro-2-fluoro-3-methoxyphenyl) pyridine-2-carboxylic acid or a derivative thereof and certain sulfonylureas” (Dow AgroSciences LLC, priority 2012, dated 2014).

Read-outs that look alike come from different tables or passages of the source.

The test has as its system LEFCH (Leptochloa chinensis, Chinese sprangletop). In words: Postemergence foliar-applied weed control, direct seeded rice, greenhouse (Example I). To be noted: for pest or weed control at 4.38 g/ha: 4.38 gae/ha; for pest or weed control at 8.75 g/ha: 8.75 gae/ha. It counts as in vivo, Leptochloa chinensis (L.) Nees. Put shortly:
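Greenhouse-grown plants in loam/sandy loam–grit soil (14 h photoperiod, ~29/26 °C) were sprayed postemergence at the first to fourth true leaf stage. Compound A (acid equivalent basis) and ALS-inhibiting sulfonylureas (active ingredient basis) were applied alone and in combination in 1.25% (v/v) crop oil concentrate at 187 L/ha by track sprayer; controls received solvent blank.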

Setting [1] is: Dinebra chinensis, post-emergence, 480 h, 20 DAA, read-out: Visual Weed Control (%) Obs.

With `COC(=O)c1ccccc1CS(=O)(=O)NC(=O)Nc1nc(OC)cc(OC)n1` [Bensulfuron-methyl, methyl 2-[[[[[(4,6-dimethoxy-2-pyrimidinyl)amino]carbonyl]amino]sulfonyl]methyl]benzoate, reference compound], where the note is “Dinebra chinensis, post-emergence, 480 h, 20 DAA, 70 gai/ha, read-out: Visual Weed Control (%) Obs”, the pest or weed control at 70 g/ha stood at 5%. For the same molecule, the pest or weed control at 17.5 g/ha (Dinebra chinensis, post-emergence, 504 h, 21 DAA, 17.5 gai/ha, read-out: Visual Weed Control (%) Obs) was 10%. Besides, the pest or weed control at 35 g/ha (Dinebra chinensis, post-emergence, 504 h, 21 DAA, 35 gai/ha, read-out: Visual Weed Control (%) Obs) worked out at 10%.

Regarding `COc1c(Cl)ccc(-c2nc(C(=O)O)c(Cl)c(N)c2F)c1F` [Compound A Acid, 4-amino-3-chloro-5-fluoro-6-(4-chloro-2-fluoro-3-methoxy-phenyl)pyridine-2-carboxylic acid], the pest or weed control at 4.38 g/ha under setting [1] came out at 0%. In addition, the pest or weed control at 5.3 g/ha (Dinebra chinensis, post-emergence, 480 h, 20 DAA, 5.3 gae/ha, read-out: Visual Weed Control (%) Obs) was found to be 0%. Besides, the pest or weed control at 8.75 g/ha amounted to 0% under setting [1] and 40% (Dinebra chinensis, post-emergence, 504 h, 21 DAA, read-out: Visual Weed Control (%) Obs). Moreover, the pest or weed control at 10.6 g/ha (Dinebra chinensis, post-emergence, 480 h, 20 DAA, 10.6 gae/ha, read-out: Visual Weed Control (%) Obs) is 10%. For the same molecule, the pest or weed control at 17.5 g/ha was determined as 10% (Dinebra chinensis, post-emergence, 480 h, 20 DAA, 17.5 gae/ha, read-out: Visual Weed Control (%) Obs) and 30% (Dinebra chinensis, post-emergence, 504 h, 21 DAA, 17.5 gae/ha, read-out: Visual Weed Control (%) Obs). In addition, the pest or weed control at 19.4 g/ha (Dinebra chinensis, post-emergence, 480 h, 20 DAA, 19.4 gae/ha, read-out: Visual Weed Control (%) Obs) came out at 5%. Moreover, the pest or weed control at 21.2 g/ha (Dinebra chinensis, post-emergence, 480 h, 20 DAA, 21.2 gae/ha, read-out: Visual Weed Control (%) Obs) was 15%.

As to `COc1c(Cl)ccc(-c2nc(C(=O)OCc3ccccc3)c(Cl)c(N)c2F)c1F` [Compound A Benzyl Ester], the “Visual Weed Control Obs” value (22 DAA, 8 gae/ha) amounted to 0%. The pest or weed control at 8.75 g/ha was determined as 20% (Dinebra chinensis, post-emergence, 480 h, read-out: Visual Weed Control (%) Obs, 20 DAA) and 0% (Dinebra chinensis, post-emergence, 576 h, read-out: Visual Weed Control (%) Obs, 24 DAA). Further, the pest or weed control at 17.5 g/ha is, setting by setting: (Dinebra chinensis, post-emergence, 480 h, read-out: Visual Weed Control (%) Obs, 20 DAA, 17.5 gae/ha) 40%; (Dinebra chinensis, post-emergence, 576 h, read-out: Visual Weed Control (%) Obs, 24 DAA, 17.5 gae/ha) 10%. Also, where the note is “Dinebra chinensis, post-emergence, 504 h, read-out: Visual Weed Control (%) Obs, 21 DAA”, the pest or weed control at 4.38 g/ha worked out at 0%. For the same molecule, the pest or weed control at 8 g/ha reads like this: (Dinebra chinensis, post-emergence, 504 h, read-out: Visual Weed Control (%) Obs, 21 DAA, 8 gae/ha) 20%; (Dinebra chinensis, post-emergence, 528 h, read-out: Visual Weed Control (%) Obs, 22 DAA, 8 gae/ha) 0%. In addition, for the setting “Dinebra chinensis, post-emergence, 528 h, read-out: Visual Weed Control (%) Obs, 22 DAA, 16 gae/ha”, the pest or weed control at 16 g/ha was 20%. In addition, the pest or weed control at 32 g/ha (Dinebra chinensis, post-emergence, 528 h, read-out: Visual Weed Control (%) Obs, 22 DAA, 32 gae/ha) amounted to 15%.

Take `COCC(=O)OC(c1ncccc1S(=O)(=O)NC(=O)Nc1nc(OC)cc(OC)n1)C(C)F` (centres unmarked) [Flucetosulfuron, 1-[3-[[[[(4,6-dimethoxy-2-pyrimidinyl)amino]carbonyl]amino]sulfonyl]-2-pyridinyl]-2-fluoropropyl 2-methoxyacetate]: where the note is “Dinebra chinensis, post-emergence, 504 h, 21 DAA, 0.05 gai/ha, read-out: Visual Weed Control (%) Obs”, the pest or weed control at 0.05 g/ha is 0%. For the setting “Dinebra chinensis, post-emergence, 504 h, 21 DAA, 0.1 gai/ha, read-out: Visual Weed Control (%) Obs”, the pest or weed control at 0.1 g/ha amounted to 0%. Besides, the pest or weed control at 1.7 g/ha (Dinebra chinensis, post-emergence, 528 h, 22 DAA, 1.7 gai/ha, read-out: Visual Weed Control (%) Obs) came out at 0%. The pest or weed control at 5 g/ha (Dinebra chinensis, post-emergence, 528 h, 22 DAA, 5 gai/ha, read-out: Visual Weed Control (%) Obs) came to 0%.
